From patent US12048306B1, “1,3-bis(naphthalen-1-yloxy)propan-2-one as an eco-friendly insecticidal agent against Spodoptera littoralis (boisd.)” (priority 2023, dated 2024)
≈ marks a conversion by molar mass, not a printed value. Where two headings read alike, the source gives them in different places.

Legend:
Spodoptera littoralis [1] = assay: Insecticidal leaf dip bioassay on S. littoralis larvae; settings: for Toxicity ratio: 72 hours, fenoxycarb's LC50 / the compound's LC50; for LC50: Spodoptera littoralis, foliar, laboratory strain, 72 hours of treatment
Description: (§1) Five concentrations (200, 100, 50, 25, 12.5 ppm) were designed for this synthetic compound and the reference fenoxycarb's compound as the dynamic ingredients based on ppm via diluting the commercial formulation.
(§2) In this experiment, the synthetic compound was tested for its insecticidal bioactivity using the industry-standard leaf dip bioassay techniques. […] Until usage, the stocks were kept in a refrigerator. The target substance test results were noted & the concentrations needed to destroy 50% (LC50) of S. littoralis larvae were calculated. The target compound was employed in five different concentrations, & 0.1% Tween 80 was employed as a surfactant. Castor bean leaf discs (nine centimeters in diameter) were dipped in the concentration under test for ten seconds, then fed to 2th & 4th larvae, which were roughly the same size and housed in glass jars (five pound). Each action carried out 3 times with ten larvae each. The mortality equalized via Abbott's formula. Calculations of mortality setback line were measurably rummage via probity analysis. Harmfulness index was strongminded via sun equations. The mortality results of larval insect were estimated through employing probit analysis through a statistics (LDP-line) equation which estimate the LC50 values with 95% fiducially limits of lower, upper confidence limit and slope.

Spodoptera littoralis [2] = settings: in vivo
Description: as §1, §2

aquatic insects = settings: highly toxic to very highly toxic; cited from earlier work

| SMILES | Toxicity ratio (Spodoptera littoralis [1]; 2nd instar larvae) | Toxicity ratio (Spodoptera littoralis [1]; 4th instar larvae) | LC50 (Spodoptera littoralis [1]; 72 h, 2nd instar larvae) | LC50 (Spodoptera littoralis [1]; 72 h, 4th instar larvae) | insecticidal activity against Spodoptera littoralis (Spodoptera littoralis [1]; 2nd and 4th instar larvae, 72 h, FIGS. 1A-1B, compared with the reference insecticide) | LC50 (Spodoptera littoralis [2]) | LC50 (aquatic insects) |
| --- | --- | --- | --- | --- | --- | --- | --- |
| CCOC(=O)NCCOc1ccc(Oc2ccccc2)cc1 [Fenoxycarb, fenoxycarb, reference compound] | 1 | 1 | 2.73 µg/mL (≈ 9.06 µM) | 9.18 µg/mL (≈ 30.5 µM) | – | – | – |
| O=C(COc1cccc2ccccc12)COc1cccc2ccccc12 [III, 1,3-bis(naphthalen-1-yloxy)propan-2-one] | 0.241 | 0.515 | 11.3 µg/mL (≈ 33.1 µM) | ~17.8 µg/mL (≈ 52 µM) | active | about 11.32 mg/L | – |
| CCc1ccc(C(=O)NN(C(=O)c2cc(C)cc(C)c2)C(C)(C)C)cc1 [tebufenozide] | – | – | – | – | – | – | 100 to 1000 mg/L |
